Where two headings read alike, the source gives them in different places.
Tests used:
[1] = tested on: human cancer cells; experiment: Cancer cell migration, transwell migration and wound closure models; format: cell-based; conditions: for cancer cell migration: model not specified
Description: Two models of cell migration were used, a transwell migration model and a wound closure model. Migration of cancer and endothelial cells was evaluated using 24-transwell Boyden chamber (Costar, Bedford, Mass.) with a polystyrene membrane (6.5 mm diameter, 10 μm thickness, and 8 μm pore size). Cells were suspended in serum-free media and seeded in the upper compartment of each well (2×10^4 cells/well) in the presence or absence of different compounds at the indicated concentrations. The lower compartment contained 600 μl of serum-free culture media supplemented with growth factors. After an 8-hr incubation at 37° C., cells were fixed and stained with 0.1% crystal violet. Non-migrating cells on the upper surface of the filter were removed, and the stained cells that migrated to the lower side were photographed using a phase-contrast microscope (Nikon, Japan) in five random fields. The cells were lysed with 10% acetic acid, and colorimetric determination was made at 595 nm using Wallac Victor 3 plate reader.
Cancer or endothelial cells were seeded into fibronectin-coated 96-well plates (2×10^4 cells/well). After reaching confluence, cell monolayers were scratched with a pipette tip to obtain a “wound”. The media and dislodged cells were aspirated and replaced by fresh serum-free media in the presence of growth factors, with or without compounds at different concentrations. After an 8-hr incubation at 37° C., cells were photographed using a phase-contrast microscope in five random fields. The width of wounded cell monolayers in images was measured and the inhibition rates of migration were calculated as inhibition rate=[1−(compound-treated group/control group)]×100%, and IC50 value was determined using Origin6 software (MicroCal, LLC, Northampton, Mass.).

[2] = molecular target: Btk PH domain (Homo sapiens (Human), UniProt Q06187); experiment: PH domain translocation assay (GFP fusion, plasma membrane); format: cell-based; conditions: PDGF stimulation
Description: Cells were transfected with the corresponding GFP-fusion vectors, serum starved overnight, and incubated with 100 μM PITs or PIT-1 is for 2 hr, followed by stimulation with 100 ng/ml PDGF or 250 ng/ml PMA for 5 min. The translocation was analyzed using fluorescent microscope and was quantitated by counting the number of cells with translocated PH domains in five random fields.
To begin characterizing cellular activity of PITs, a PH domain translocation assay was performed, measuring PIP3-induced association of GFP-fused PH domains with the plasma membrane. This method provides useful means for monitoring status of the PH domain/PIP3 binding in the intact cells. Varnai P et al. (1999) J Biol Chem 274:10983-9. Several PH-domain-containing proteins, which are known to bind PIP3 specifically and efficiently, were examined. […] Oikawa T et al. (2004) Nat Cell Biol 6:420-6.

[3] = molecular target: GRP1 PH domain (Homo sapiens, UniProt O43739); experiment: FP PIP3/GRP1 PH domain binding assay; conditions: 15 nM TMR-conjugated PIP3, 100 nM GRP1 PH domain, 30 min
[4] = tested on: PI3K-PDK1-Akt pathway; experiment: PIP3-regulated phosphorylation events in U87MG cells; format: cell-based, human
Description: The effect of PIT-1 on PIP3-mediated signaling was examined in U87MG glioblastoma cells, which show elevated basal levels of PIP3 due to the loss of PTEN. Pore N et al. (2003) Cancer Res 63:236-41.

[5] = tested on: SUM159 cells; experiment: Cell polarization in wounded monolayers after PDGF; format: cell-based, human; conditions: wound healing model, 100 μM
Description: In order to measure cell polarization, wounds were generated in SUM159 cell monolayers, followed by serum starvation and treatment with 100 μM PIT-1, PIT-2, PIT-1i-1, or PIT-1i-2 for 2 hr. Cells were stimulated for 15 min with 100 ng/ml PDGF, fixed and stained with TRITC-phalloidin for F-actin (red), acetylated tubulin antibody (green) for microtubule organization center (MTOC), and Hoechst for nuclei (blue). Cell polarization was evaluated by analysis of the relative location of the MTOC and nucleus. […] The number of polarized cells was counted in five random fields under fluorescent microscope.

[6] = tested on: U87MG cells; experiment: cells; format: cell-based; conditions: for IC50: U87MG cells, 48 hr, ATP assay, read-out: Cell Viability IC50
Description: Based on the critical role of PIP3-dependent […] signaling in the regulation of cell survival, the effect of PIT-1 on the cancer cell viability was tested. Cancer cells were seeded into 96-well plates (white plates for ATP assay; black plates for fluorescent assay; clear plates for MTS assay) at the density of 5-10×10^3 cells per well in 100 μl of the appropriate media. Compounds were added at a series of concentrations and incubated for different times. For the ATP assay, a luminescence-based commercial kit (CellTiter-Glo, Promega, Madison, Wis.) was used. Thirty microliters of cell lysis/ATP detection reagent was added to each well, mixed for 10 min at room temperature, and the luminescence was measured using a Wallac Victor 3 plate reader (Perkin-Elmer, Wellesley, Mass.). For the MTS assay, a CellTiter 96 AQueous Non-Radioactive Cell Proliferation Assay Kit (Promega, Madison, Wis., USA) was used. Twenty microliters of the combined MTS/PMS solution was added into each well, incubated for 4 hr at 37° C., and the absorbance at 490 nm was measured using a Wallac Victor 3 plate reader. For the Sytox cell death assay, measuring loss of plasma membrane integrity, cells were incubated with 1 μM Sytox Green reagent (Molecular Probes, Eugene, Oreg.) for 30 min at 37° C. and the fluorescence intensity was measured using Wallac Victor 3 plate reader with excitation at 485 nm and emission at 545 nm. Next, 5 μl of 20% (v/v) Triton X-100 solution was added to each well and incubated for 1 hr at 37° C., and the signal was measured again. The ratio of values (percentage of dead cells in each well) before and after Triton X-100 treatment was calculated and normalized to the relevant controls not subjected to the cytotoxic stimuli. IC50 values were determined using Origin6 software (MicroCal, LLC, Northampton, Mass.).
To measure induction of cell death by PIT-1 derivatives, U87MG cells were incubated with PITs (1.56-300 μM) for 48 hr. Cell viability was determined using ATP assay.

[7] = tested on: SUM159 cells transfected with VAV2 or WAVE2; experiment: Wound migration of VAV- or WAVE-overexpressing cells; format: cell-based, human; conditions: PDGF, 8 hr
Description: SUM159 cells were transfected with VAV2 or WAVE2. Scratch wound was generated in cell monolayer, followed by treatment with PIT-1 (100 μM) in the presence of PDGF (100 ng/ml) stimulation for 8 hr. The inhibitory effect of PITs on VAV- or WAVE-induced cell migration was calculated according to the width of wound. The width of wounded cell monolayers was measured in five random fields.

Chain of Btk PH domain (Q06187 3-133): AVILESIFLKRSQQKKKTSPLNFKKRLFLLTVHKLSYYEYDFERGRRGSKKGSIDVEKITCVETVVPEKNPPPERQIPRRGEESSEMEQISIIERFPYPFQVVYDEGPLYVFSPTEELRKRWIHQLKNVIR

SMILES	cancer cell migration [1]	plasma membrane translocation of Btk PH domain [2]	IC50 [3] [µM]	PI3K-PDK1-Akt signaling in U87MG cells [4]	cell polarization and lamellipodia formation induced by PDGF [5]	IC50 [6] [µM]	inhibition of migration in VAV- and WAVE-overexpressing cells compared to control cells [7]	growth factor-induced transwell migration ([1]; dose-dependent)	killing of U87MG cells compared with LY294002 [6]	IC50 ([6]; Homo sapiens, U-87 MG) [µM]
O=C(NC(=O)c1ccccc1)Nc1cc([N+](=O)[O-])cc(Cl)c1O [PIT-1i-1, reference compound]	neither PIT-1i-1 nor PIT-1i-2 was active	inactive	> 200	failed to inhibit PDK1/Akt signaling	failed to prevent cell polarization	> 200	lacked activity	–	–	–
O=C(NC(=S)Nc1cc([N+](=O)[O-])cc(Cl)c1O)c1ccccc1 [PIT-1]	much stronger than that of Akt kinase inhibitor VIII	significantly inhibited the translocation	40.3 ± 2.8	suppressed activity of the PI3K-PDK1-Akt pathway	effective at preventing cell polarization and lamellipodia formation	–	larger degree of inhibition of cell migration	substantially inhibited	more pronounced than that by the PI3K inhibitor LY294002	39.9 ± 3.2
COc1c(Cl)cc([N+](=O)[O-])cc1NC(=S)NC(=O)c1ccccc1 [PIT-1i-2]	neither PIT-1i-1 nor PIT-1i-2 was active	inactive	> 200	failed to inhibit PDK1/Akt signaling	failed to prevent cell polarization	> 200	lacked activity	–	–	–

Source: patent US8628961B2, “Small molecule antagonists of phosphatidylinositol-3,4,5-triphosphate (PIP3) and uses thereof” (Tufts University, priority 2010, dated 2014)
